According to US9725449B2, “Tricyclic compounds as anticancer agents” (BRISTOL-MYERS SQUIBB COMPANY, priority 2015, dated 2017):
pIC50: −log10 of the molar value.

molecular target: BRD4 (Homo sapiens, UniProt O60885); experiment: Time resolved fluorescence resonance energy transfer (TR-FRET) binding assay, bromodomain BRD4; settings: one of the FRET assays described; read-out: FRET BRD4 IC50

How did the pIC50 turn out when `Cc1nnn(C)c1-c1cnc2c3ccc(C(C)O)nc3n([C@H](c3ccccc3)C3CCOCC3)c2c1` (stereo partly drawn) [Example 173, 1-[5-(Dimethyl-1H-1,2,3-triazol-5-yl)-8-[(S)-oxan-4-yl(phenyl)methyl]-3,8,10-triazatricyclo[7.4.0.0^2,^7]trideca-1(9),2(7),3,5,10,12-hexaen-11-yl]ethan-1-ol] was run?
The pIC50 was > 8.00.

With `[2H]C([2H])([2H])c1nnn(C)c1-c1cnc2c3c(OC)nc(C(C)(C)O)cc3n(C(c3ccccc3)C3CCC(F)(F)CC3)c2c1` (centres unmarked) [Example 346, 2-{8-[(4,4-Difluorocyclohexyl)(phenyl)methyl]-13-methoxy-5-[4-(^2H3)methyl-1-methyl-1H-1,2,3-triazol-5-yl]-3,8,12-triazatricyclo[7.4.0.0^2,^7]trideca-1(13),2(7),3,5,9,11-hexaen-11-yl}propan-2-ol] as the compound, how does the pIC50 read?
The pIC50 was > 9.00.

With `Cc1nnn(C)c1-c1cnc2c3c(O)ncc(S(C)(=O)=O)c3n([C@H](c3ccccc3)C3CCOCC3)c2c1` [Example 93, 5-(Dimethyl-1H-1,2,3-triazol-5-yl)-10-methanesulfonyl-8-[(S)-oxan-4-yl(phenyl)methyl]-3,8,12-triazatricyclo[7.4.0.0^2,^7]trideca-1(13),2(7),3,5,9,11-hexaen-13-ol] as the compound, how does the pIC50 read?
Its pIC50 is > 8.00.

`Cc1noc(C)c1-c1cnc2c3cnc(C(C)(C)O)cc3n([C@H](c3ccc(F)cc3)C3CCOCC3)c2c1` [Example 331, 2-[5-(Dimethyl-1,2-oxazol-4-yl)-8-[(S)-(4-fluorophenyl)(oxan-4-yl)methyl]-3,8,12-triazatricyclo[7.4.0.0^2,^7]trideca-1(9),2(7),3,5,10,12-hexaen-11-yl]propan-2-ol] was tested. Which pIC50 did it give?
The pIC50 was > 8.00.

`COc1cc2c(c(C)n1)c1ncc(-c3c(C)nnn3C)cc1n2[C@H](c1ccccc1)C1CCOCC1` [Example 283, 5-(Dimethyl-1H-1,2,3-triazol-5-yl)-11-methoxy-13-methyl-8-[(S)-oxan-4-yl(phenyl)methyl]-3,8,12-triazatricyclo[7.4.0.0^2,^7]trideca-1(9),2(7),3,5,10,12-hexaene] was tested. Which pIC50 did it give?
Its pIC50 is > 9.00.

“2-{11-Chloro-5-[4-(^2H3)methyl-1-methyl-1H-1,2,3-triazol-5-yl]-8-[(S)-oxan-4-yl(phenyl)methyl]-3,8,12-triazatricyclo[7.4.0.0^2,^7]trideca-1(13),2(7),3,5,9,11-hexaen-13-yl}propan-2-ol [Example 293]” was tested. Which pIC50 did it give?
Its pIC50 is > 8.00.

How did the pIC50 turn out when `Cc1nnn(C)c1-c1cnc2c3ccnc(Cl)c3n([C@H](c3ccccc3)C3CCOCC3)c2c1` [Example 6, 10-Chloro-5-(dimethyl-1H-1,2,3-triazol-5-yl)-8-[(S)-oxan-4-yl(phenyl)methyl]-3,8,11-triazatricyclo[7.4.0.0^2,^7]trideca-1(13),2(7),3,5,9,11-hexaene] was run?
Its pIC50 is > 9.00.

How did the pIC50 turn out when `[2H]C([2H])([2H])c1nnn(C)c1-c1cnc2c3ccc(N(C)CCNC)nc3n([C@H](c3ccccc3F)C3CCOCC3)c2c1` [Example 236, 8-[(S)-(2-Fluorophenyl)(oxan-4-yl)methyl]-N-methyl-5-[4-(^2H3)methyl-1-methyl-1H-1,2,3-triazol-5-yl]-N-[2-(methylamino)ethyl]-3,8,10-triazatricyclo[7.4.0.0^2,^7]trideca-1(13),2(7),3,5,9,11-hexaen-11-amine] was run?
The pIC50 was > 9.00.

`Cc1noc(C)c1-c1cnc2c3ccc(N4CCS(=O)(=O)CC4)nc3n([C@H](c3ccccc3)C3CCOCC3)c2c1` [Example 209, 4-[5-(Dimethyl-1,2-oxazol-4-yl)-8-[(S)-oxan-4-yl(phenyl)methyl]-3,8,10-triazatricyclo[7.4.0.0^2,^7]trideca-1(9),2(7),3,5,10,12-hexaen-11-yl]-1λ^6,4-thiomorpholine-1,1-dione] was tested. Which pIC50 did it give?
Its pIC50 is > 8.00.

`Cc1noc(C)c1-c1cnc2c3c(NS(=O)(=O)C(C)C)ncc(S(C)(=O)=O)c3n([C@H](c3ccccc3)C3CCOCC3)c2c1` [Example 100, N-[5-(Dimethyl-1,2-oxazol-4-yl)-10-methanesulfonyl-8-[(S)-oxan-4-yl(phenyl)methyl]-3,8,12-triazatricyclo[7.4.0.0^2,^7]trideca-1(13),2(7),3,5,9,11-hexaen-13-yl]propane-2-sulfonamide] was tested. Which pIC50 did it give?
Its pIC50 is > 8.00.

How did the pIC50 turn out when `[2H]C(C)(O)c1ccc2c3ncc(-c4c(C)nnn4C)cc3n([C@H](c3ccccc3)C3CCOCC3)c2n1` (stereo partly drawn) [Example 172, 1-[5-(Dimethyl-1H-1,2,3-triazol-5-yl)-8-[(S)-oxan-4-yl(phenyl)methyl]-3,8,10-triazatricyclo[7.4.0.0^2,^7]trideca-1(9),2(7),3,5,10,12-hexaen-11-yl](1-^2H)ethan-1-ol] was run?
The pIC50 was > 8.00.

`Cc1nnn(C)c1-c1cnc2c3ccc(C#N)nc3n([C@H](c3ccccc3)C3CCOCC3)c2c1` [Example 169, 5-(Dimethyl-1H-1,2,3-triazol-5-yl)-8-[(S)-oxan-4-yl(phenyl)methyl]-3,8,10-triazatricyclo[7.4.0.0^2,^7]trideca-1(9),2(7),3,5,10,12-hexaene-11-carbonitrile] was tested. Which pIC50 did it give?
The pIC50 was > 8.00.

How did the pIC50 turn out when `Cc1noc(C)c1-c1cnc2c3cnc(Cl)cc3n(C(c3ccc(Cl)cn3)C3CCOCC3)c2c1` (single isomer, unassigned) [Example 328] was run?
Its pIC50 is > 8.00.

`[2H]C([2H])([2H])c1nnn(C)c1-c1cnc2c3cnc(-c4c(C([2H])([2H])[2H])nnn4C)cc3n([C@H](c3ccc(F)cc3)C3CCOCC3)c2c1` [Example 160, 8-[(S)-(4-Fluorophenyl)(oxan-4-yl)methyl]-5,11-bis[4-(^2H3)methyl-1-methyl-1H-1,2,3-triazol-5-yl]-3,8,12-triazatricyclo[7.4.0.0^2,^7]trideca-1(13),2(7),3,5,9,11-hexaene] was tested. Which pIC50 did it give?
Its pIC50 is > 8.00.

`CCCC(c1ccc(F)cn1)n1c2cc(-c3c(C)nnn3C)ncc2c2ncc(C(C)(C)O)cc21` (single isomer, unassigned) [Example 375] was tested. Which pIC50 did it give?
Its pIC50 is > 5.82.

How did the pIC50 turn out when `CCCC(c1ncccc1F)n1c2cc(-c3c(C)nnn3C)ncc2c2ncc(C(C)(C)O)cc21` (single isomer, unassigned) [Example 370] was run?
Its pIC50 is > 8.00.

`[2H]C([2H])([2H])c1nnn(C)c1-c1cnc2c3ccc(C4CCS(=O)(=O)CC4)nc3n([C@H](c3ccccc3)C3CCOCC3)c2c1` [Example 205, 4-{5-[4-(^2H3)Methyl-1-methyl-1H-1,2,3-triazol-5-yl]-8-[(S)-oxan-4-yl(phenyl)methyl]-3,8,10-triazatricyclo[7.4.0.0^2,^7]trideca-1(9),2(7),3,5,10,12-hexaen-11-yl}-1λ^6-thiane-1,1-dione] was tested. Which pIC50 did it give?
Its pIC50 is > 8.00.

`Cc1nnn(C)c1-c1cnc2c3ccc(NS(C)(=O)=O)nc3n([C@H](c3ccccc3)C3CCOCC3)c2c1` [Example 208, N-[5-(Dimethyl-1H-1,2,3-triazol-5-yl)-8-[(S)-oxan-4-yl(phenyl)methyl]-3,8,10-triazatricyclo[7.4.0.0^2,^7]trideca-1(9),2(7),3,5,10,12-hexaen-11-yl]methanesulfonamide] was tested. Which pIC50 did it give?
Its pIC50 is > 8.00.

With `CNCCN(C)c1ccc2c3ncc(-c4c(C)nnn4C)cc3n([C@H](c3ccccc3F)C3CCOCC3)c2n1` [Example 228, 5-(Dimethyl-1H-1,2,3-triazol-5-yl)-8-[(S)-(2-fluorophenyl)(oxan-4-yl)methyl]-N-methyl-N-[2-(methylamino)ethyl]-3,8,10-triazatricyclo[7.4.0.0^2,^7]trideca-1(13),2(7),3,5,9,11-hexaen-11-amine] as the compound, how does the pIC50 read?
Its pIC50 is > 9.00.

`[2H]C([2H])([2H])c1nnn(C)c1-c1cnc2c3c(NCC(F)(F)F)ncc(S(C)(=O)=O)c3n([C@H](c3ccccc3)C3CCOCC3)c2c1` [Example 277, 10-Methanesulfonyl-5-[4-(^2H3)methyl-1-methyl-1H-1,2,3-triazol-5-yl]-8-[(S)-oxan-4-yl(phenyl)methyl]-N-(2,2,2-trifluoroethyl)-3,8,12-triazatricyclo[7.4.0.0^2,^7]trideca-1(13),2(7),3,5,9,11-hexaen-13-amine] was tested. Which pIC50 did it give?
The pIC50 was > 9.00.

With `Cc1nnn(C)c1-c1cnc2c3ccc(N(C)C)nc3n([C@H](c3ccccc3)C3CCOCC3)c2c1` [Example 181, 5-(Dimethyl-1H-1,2,3-triazol-5-yl)-N,N-dimethyl-8-[(S)-oxan-4-yl(phenyl)methyl]-3,8,10-triazatricyclo[7.4.0.0^2,^7]trideca-1(9),2(7),3,5,10,12-hexaen-11-amine] as the compound, how does the pIC50 read?
The pIC50 was > 9.00.

`[2H]C([2H])([2H])c1nnn(C)c1-c1cnc2c3c(OCC)ncc(S(C)(=O)=O)c3n([C@H](c3ccccc3)C3CCOCC3)c2c1` [Example 56, 13-Ethoxy-10-methanesulfonyl-5-[4-(^2H3)methyl-1-methyl-1H-1,2,3-triazol-5-yl]-8-[(S)-oxan-4-yl(phenyl)methyl]-3,8,12-triazatricyclo[7.4.0.0^2,^7]trideca-1(13),2(7),3,5,9,11-hexaene] was tested. Which pIC50 did it give?
Its pIC50 is > 9.00.

How did the pIC50 turn out when `[2H]C([2H])([2H])c1nnn(C)c1-c1cnc2c3c(OC)nc(Cl)cc3n([C@H](c3ncccc3F)C3CCOCC3)c2c1` [Example 305, 11-Chloro-8-[(S)-(3-fluoropyridin-2-yl)(oxan-4-yl)methyl]-13-methoxy-5-[4-(^2H3)methyl-1-methyl-1H-1,2,3-triazol-5-yl]-3,8,12-triazatricyclo[7.4.0.0^2,^7]trideca-1(9),2(7),3,5,10,12-hexaene] was run?
Its pIC50 is > 8.00.

With `[2H]C([2H])([2H])c1nnn(C)c1-c1cnc2c3ccc(N4CCN(C5CC5)CC4)nc3n([C@H](c3ccccc3)C3CCOCC3)c2c1` [Example 151, 11-(4-Cyclopropylpiperazin-1-yl)-5-[4-(^2H3)methyl-1-methyl-1H-1,2,3-triazol-5-yl]-8-[(S)-oxan-4-yl(phenyl)methyl]-3,8,10-triazatricyclo[7.4.0.0^2,^7]trideca-1(9),2(7),3,5,10,12-hexaene] as the compound, how does the pIC50 read?
The pIC50 was > 8.00.

With `[2H]C([2H])([2H])c1nnn(C)c1-c1cnc2c3c(F)c(C(C)(C)O)ncc3n([C@H](c3ccccc3)C3CCOCC3)c2c1` [Example 292, 2-{13-Fluoro-5-[4-(^2H3)methyl-1-methyl-1H-1,2,3-triazol-5-yl]-8-[(S)-oxan-4-yl(phenyl)methyl]-3,8,11-triazatricyclo[7.4.0.0^2,^7]trideca-1(13),2(7),3,5,9,11-hexaen-12-yl}propan-2-ol] as the compound, how does the pIC50 read?
The pIC50 was > 8.00.

`COc1ncc(S(C)(=O)=O)c2c1c1ncc(-c3c(C)nnn3C)cc1n2[C@H](c1ccc(F)cc1)C1CCOCC1` [Example 52, 5-(Dimethyl-1H-1,2,3-triazol-5-yl)-8-[(S)-(4-fluorophenyl)(oxan-4-yl)methyl]-10-methanesulfonyl-13-methoxy-3,8,12-triazatricyclo[7.4.0.0^2,^7]trideca-1(13),2(7),3,5,9,11-hexaene] was tested. Which pIC50 did it give?
Its pIC50 is > 9.00.
